{"source": "patent US12448632B2", "about": "“Guanidine degradation enzyme and methods of use” (Alliance for Sustainable Energy, LLC, priority 2020, dated 2025)", "key": {"Synechococcus 7942 [1]": {"tested_on": "Synechococcus 7942", "experiment": "Cell growth with urea in culture medium", "type": "cell-based, Synechococcus elongatus PCC 7942", "details": "5 mM urea; nitrate-deprived or nitrate-replete conditions"}, "Synechococcus 7942 [2]": {"tested_on": "Synechococcus 7942", "type": "cell-based, Synechococcus elongatus PCC 7942", "protocol": "(§1) Guanidine tolerance and degradation test. For guanidine tolerance test, cyanobacterial strains were grown in 20 mL mBG11 medium supplemented with 0-1 mM guanidine and 50 mM NaHCO3. For guanidine degradation test, cyanobacterial strains were grown in 10 mL mBG11 free of nitrate while supplemented with 50 mM NaHCO3 and 5 mM or 1 mM guanidine chloride, under constant light of 50 μE m^−2 s^−1 on a rotary shaker at 150 rpm and 30° C. Every day, 1 mL of culture was sampled for reading OD730 and then transferred into an Eppendorf tube and centrifuged at 17000×g at room temperature for 2 min. The supernatants were stored at −20° C. for later analysis of guanidine."}, "GD7942 (+sll1077)": {"tested_on": "GD7942 (+sll1077)", "experiment": "Guanidine tolerance test, cell growth", "type": "cell-based, Synechococcus elongatus PCC 7942", "protocol": "as §1, with “For guanidine tolerance test, cyanobacterial strains were grown in 20 mL mBG11 medium supplemented with 0-1 mM guanidine and 50 mM NaHCO3.” left out"}, "Δsll1077 strain (PB805W)": {"tested_on": "Δsll1077 strain (PB805W)", "experiment": "Growth in nitrate-deprived medium with guanidine", "type": "cell-based, Synechocystis sp. PCC 6803", "details": "guanidine-supplemented (5 mM) versus nitrogen-deprived conditions", "protocol": "as §1"}}}
{"smiles": "NC(N)=O", "note": "[urea]", "values": [{"measurement": "impact on cell growth", "setting": "Synechococcus 7942 [1]", "result": "did not show any apparent impact on the cell growth"}]}
{"smiles": "N=C(N)N", "note": "[guanidine]", "values": [{"measurement": "guanidine concentration at which cell growth was already inhibited", "setting": "Synechococcus 7942 [2]", "result": 0.3, "unit": "mM"}, {"measurement": "cell growth", "setting": "GD7942 (+sll1077); 1 mM guanidine in culture medium", "result": "not apparently repressed"}, {"measurement": "cell growth", "setting": "GD7942 (+sll1077); 2 mM guanidine in culture medium", "result": "only slightly inhibited"}, {"measurement": "cell growth", "setting": "Δsll1077 strain (PB805W)", "result": "severely inhibited"}]}
